Consider five compounds from US8455479B2, “Heterocyclic compounds” (Panacea Biotec Limited, priority 2008, dated 2013).

One assay has as its target DPP-IV (UniProt P27487). Kind of assay: In-vitro DPP-IV assay (cleavage of pNA from Gly-Pro-pNA). Type of assay: biochemical, porcine kidney or human recombinant. Particulars: for IC50: DPP-IV; for % Inhibition: DPP-IV inhibition at 100 nM. As for the experimental part: Protocol for In-Vitro DPP-IV Assay
DPP-IV activity was determined by the rate of cleavage of p-nitro aniline (pNA) from synthetic substrate Glycine-Proline-pNA. The assay was conducted by adding 1 μg of porcine kidney or human recombinant DPP-IV enzyme (Sigma Aldrich, USA) in 100 μL of the assay buffer (100 mM Tris, pH 7.4, 140 mM NaCl, 10 mM KCl, 1% BSA) to 96 well Cellstar flat bottom microtitre plates (Greiner Bio-one, Germany). The reaction was initiated by adding 80 μl of 500 μM substrate Gly-Pro-pNA. The incubation was carried out in the kinetic mode at 30° C. for 30 min. Absorbance was measured using Synergy HT Biotek Multiplate reader at 410 nm. Test compounds and solvent controls were added as 10 μL additions. A standard curve of free p-nitro, aniline (pNA) was generated using 0-2000 μM pNA in the assay buffer. In addition DPP-IV activity was also determined by using Fluorogenic substrate (Gly-Pro-AMC) using human recombinant DPP-IV enzyme (Sigma Aldrich USA).
Test compounds dissolved in DMSO at 9-10 different concentrations were tested in triplicates along with the solvent control and blank samples. % age inhibition was calculated at each concentration with respect to the solvent control (no test compound added). IC50 values were calculated from 3 experiments using the Graph Pad Prism or Sigma Stat software.

A further assay deals with C57BL/6J mice. Kind of assay: Oral glucose tolerance test (OGTT) in C57BL/6J mice. Type of assay: in vivo. Particulars: for ED50 (mg/kg p.o.): OGTT in C57BL/6J mice; for % Reduction in glucose excursion: OGTT in C57BL/6J mice at 3 mg/kg body weight, glucose 2 g/kg p.o., glucose AUC. As for the experimental part:
Oral Glucose Tolerance Test (OGTT) in C57BL/6J Mice
The oral glucose tolerance test (OGTT) measures the body's ability to use glucose that is the body's main source of energy. OGTT serves as a primary in-vivo screen to select efficacious test compounds for their antidiabetic activity. Compounds were formulated in 0.25% CMC with a drop of tween 80 (optional). C57BL/6J male mice (8-9 weeks) were fasted overnight and randomized into different groups (n=6) on body weigh basis. At T−15 min blood was collected from each group for glucose estimation. At T0 compounds or vehicle were administered with simultaneous administration of glucose (2 g/kg p.o.) to each group. RO water was administered to no glucose control group. Blood samples were collected from retro-orbital plexus at 15, 30, 60 and 120 min post dosing for glucose estimation. The AUC for glucose was calculated to get the reduction in glucose excursion.

Turning to `N[C@@H](CC(=O)N1CC(=O)Nc2ccccc2C1)Cc1cc(F)c(F)cc1F` [Compound 2], on DPP-IV, the IC50 was in the range of 1 to 100 nM and the “% Inhibition” value was “Y (Y: 50-100% DPP-IV inhibition at 100 nM)”. Moreover, in the assay with C57BL/6J mice, the “ED50 (mg/kg p.o.)” value is reported as 0.4 mg/kg p.o and the “% Reduction in glucose excursion” value worked out at 51%.
On to `N[C@@H](CC(=O)N1CC(=O)Nc2cc(F)ccc2C1)Cc1cc(F)c(F)cc1F` [Compound 3], for which, at DPP-IV, the IC50 was 1 to 100 nM and the “% Inhibition” value was “Y (Y: 50-100% DPP-IV inhibition at 100 nM)”. In addition, in the assay with C57BL/6J mice, the “ED50 (mg/kg p.o.)” value was 0.7 mg/kg p.o and the “% Reduction in glucose excursion” value turned out to be 37%.
On to `N[C@@H](CC(=O)N1CC(=O)N(CC(=O)NC2CC2)c2cc(F)ccc2C1)Cc1cc(F)c(F)cc1F` [Compound 38], for which, on DPP-IV, the IC50 was 1 to 100 nM and the “% Inhibition” value is reported as “Y (Y: 50-100% DPP-IV inhibition at 100 nM)”.
`N[C@@H](CC(=O)N1Cc2ccccc2-n2ccnc2C1)Cc1cc(F)c(F)cc1F` [Compound 95]: at DPP-IV, the IC50 lay in the range of 1 to 100 nM and the “% Inhibition” value was “Y (Y: 50-100% DPP-IV inhibition at 100 nM)”.
In the case of `CN(C(=O)CN1C(=O)CN(C(=O)C[C@H](N)Cc2cc(F)c(F)cc2F)Cc2ccccc21)C1CC1` [Compound 39], the “% Inhibition” value at DPP-IV is “Y (Y: 50-100% DPP-IV inhibition at 100 nM)”.

Broadly, the IC50 is the midpoint of a concentration-inhibition curve.
